Reference: patent publication US12319655B2, “RAF kinase inhibitors and methods of use thereof” (Deciphera Pharmaceuticals, LLC, priority 2021, dated 2025)

Experiments:
[1] = target: B-Raf kinase (SEQ. ID NO: 2) (Homo sapiens (Human), UniProt P15056); assay: Biochemical Assay for B-Raf (2); settings: Table J, biochemical assay (2); read-out: BRAF (2)
Description: Biochemical Assay for B-Raf (2)
(§1) Activity of B-Raf kinase (SEQ. ID NO: 2) was determined spectroscopically using a coupled pyruvate kinase/lactate dehydrogenase assay that continuously monitors the ATP hydrolysis-dependent oxidation of NADH (e.g., Schindler et al., Science, 2000, 289, 1938-1942). Assays were conducted in 384-well plates (25 μL final volume) using 2 nM B-Raf (Sigma), 1.5 units pyruvate kinase, 2.1 units lactate dehydrogenase, 1 mM phosphoenol pyruvate, 0.7 mM NADH, 50 nM MEK (SignalChem), and 1 mM ATP in assay buffer (100 mM Tris, pH 7.5, 15 mM MgCl2, 0.5 mM DTT, 0.1% octyl-glucoside, 0.002% (w/v) BSA, and 0.002% Triton X-100). Inhibition of B-Raf was measured by adding serial diluted test compound (final assay concentration of 1% DMSO). A decrease in absorption at 340 nm was monitored hourly for 4 h at 30° C. on a multi-mode microplate reader (BioTek). The reaction rate was calculated using the 2 to 3 h time frame. The reaction rate at each concentration of compound was converted to percent inhibition using controls (i.e., reaction with no test compound and reaction with a known inhibitor) and IC50 values were calculated by fitting a four-parameter sigmoidal curve to the data using Prism (GraphPad software).

[2] = target: B-Raf (V600E) (SEQ. ID NO: 4) kinase (Homo sapiens (Human), UniProt P15056, V600E); assay: Biochemical Assay for B-Raf (V600E) (2); settings: Table J, BRAF V600E, biochemical assay (2); read-out: BRAF VE (2)
Description: Biochemical Assay for B-Raf (V600E) (2)
Activity of B-Raf (V600E) (SEQ. ID NO: 4) kinase was determined spectroscopically using a coupled pyruvate kinase/lactate dehydrogenase assay that continuously monitors the ATP hydrolysis-dependent oxidation of NADH (e.g., Schindler et al., Science, 2000, 289, 1938-1942). Assays were conducted in 384-well plates (25 μL final volume) using 0.5 nM B-Raf (deCode), 1.5 units pyruvate kinase, 2.1 units lactate dehydrogenase, 1 mM phosphoenol pyruvate, 0.7 mM NADH, 100 nM MEK (SignalChem), and 1 mM ATP in assay buffer (100 mM Tris, pH 7.5, 15 mM MgCl2, 0.5 mM DTT, 0.1% octyl-glucoside, 0.002% (w/v) BSA, and 0.002% Triton X-100). Inhibition of B-Raf (V600E) was measured by adding serial diluted test compound (final assay concentration of 1% DMSO). A decrease in absorption at 340 nm was monitored hourly for 4 h at 30° C. on a multi-mode microplate reader (BioTek). The reaction rate was calculated using the 3 to 4 h time frame. The reaction rate at each concentration of compound was converted to percent inhibition using controls (i.e., reaction with no test compound and reaction with a known inhibitor) and IC50 values were calculated by fitting a four-parameter sigmoidal curve to the data using Prism (GraphPad software).

[3] = target: A-Raf kinase (SEQ. ID No: 1) (Homo sapiens (Human), UniProt P10398, Y301D/Y302D); assay: Biochemical Assay for A-Raf (2); settings: Table J, biochemical assay (2); read-out: ARAF (2)
Description: Biochemical Assay for A-Raf (2)
Activity of A-Raf kinase (SEQ. ID No: 1) was determined spectroscopically using a coupled pyruvate kinase/lactate dehydrogenase assay that continuously monitors the ATP hydrolysis-dependent oxidation of NADH (e.g., Schindler et al., Science, 2000, 289, 1938-1942). Assays were conducted in 384-well plates (25 μL final volume) using 20 nM A-Raf (Eurofins), 1.5 units pyruvate kinase, 2.1 units lactate dehydrogenase, 1 mM phosphoenol pyruvate, 0.7 mM NADH, 100 nM MEK (SignalChem), and 1 mM ATP in assay buffer (100 mM Tris, pH 7.5, 15 mM MgCl2, 0.5 mM DTT, 0.1% octyl-glucoside, 0.002% (w/v) BSA, and 0.002% Triton X-100). Inhibition of A-Raf was measured by adding serial diluted test compound (final assay concentration of 1% DMSO). A decrease in absorption at 340 nm was monitored hourly for 4 h at 30° C. on a multi-mode microplate reader (BioTek). The reaction rate was calculated using the 3 to 4 h time frame. The reaction rate at each concentration of compound was converted to percent inhibition using controls (i.e., reaction with no test compound and reaction with a known inhibitor) and IC50 values were calculated by fitting a four-parameter sigmoidal curve to the data using Prism (GraphPad software).

[4] = target: C-Raf kinase (SEQ. ID NO: 3) (Homo sapiens (Human), UniProt P04049, Y340D/Y341D); assay: Biochemical Assay for C-Raf (2); settings: Table J, biochemical assay (2); read-out: CRAF (2)
Description: Biochemical Assay for C-Raf (2)
as §1, with “of C-Raf” for “of B-Raf”, “NO: 3)” for “NO: 2)”, “using 3.84” for “using 2”, “nM C-Raf (Eurofins),” for “nM B-Raf (Sigma),”

Sequence of B-Raf kinase (SEQ. ID NO: 2) (P15056 416-766): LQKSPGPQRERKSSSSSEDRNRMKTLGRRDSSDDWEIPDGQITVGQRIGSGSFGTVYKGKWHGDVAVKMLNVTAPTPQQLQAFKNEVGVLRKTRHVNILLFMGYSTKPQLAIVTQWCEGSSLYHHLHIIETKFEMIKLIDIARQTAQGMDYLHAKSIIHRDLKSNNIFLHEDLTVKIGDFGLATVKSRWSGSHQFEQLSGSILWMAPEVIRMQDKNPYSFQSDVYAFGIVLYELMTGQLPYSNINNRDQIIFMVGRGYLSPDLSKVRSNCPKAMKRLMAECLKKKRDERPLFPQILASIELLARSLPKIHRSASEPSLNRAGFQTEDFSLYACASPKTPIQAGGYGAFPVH
Sequence of A-Raf kinase (SEQ. ID No: 1) (P10398 other isoform, or with tags, fused parts or gaps Y301D (already in the parent)/Y302D (already in the parent)): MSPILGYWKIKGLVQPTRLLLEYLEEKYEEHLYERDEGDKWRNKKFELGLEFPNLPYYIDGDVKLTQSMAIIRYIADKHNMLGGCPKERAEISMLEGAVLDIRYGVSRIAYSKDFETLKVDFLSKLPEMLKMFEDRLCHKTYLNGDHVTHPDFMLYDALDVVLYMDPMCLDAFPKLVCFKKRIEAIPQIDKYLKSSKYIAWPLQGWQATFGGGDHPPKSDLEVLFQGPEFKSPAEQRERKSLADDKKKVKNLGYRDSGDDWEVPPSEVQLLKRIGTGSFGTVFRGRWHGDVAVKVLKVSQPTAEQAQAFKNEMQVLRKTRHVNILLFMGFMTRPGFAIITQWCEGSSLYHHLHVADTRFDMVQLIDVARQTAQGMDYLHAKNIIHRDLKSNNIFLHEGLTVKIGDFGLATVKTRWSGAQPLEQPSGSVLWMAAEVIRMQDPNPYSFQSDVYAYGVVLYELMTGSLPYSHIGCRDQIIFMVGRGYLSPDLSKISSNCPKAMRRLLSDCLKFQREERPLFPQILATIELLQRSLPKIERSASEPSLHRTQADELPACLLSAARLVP
Sequence of C-Raf kinase (SEQ. ID NO: 3) (P04049 307-648 Y340D/Y341D): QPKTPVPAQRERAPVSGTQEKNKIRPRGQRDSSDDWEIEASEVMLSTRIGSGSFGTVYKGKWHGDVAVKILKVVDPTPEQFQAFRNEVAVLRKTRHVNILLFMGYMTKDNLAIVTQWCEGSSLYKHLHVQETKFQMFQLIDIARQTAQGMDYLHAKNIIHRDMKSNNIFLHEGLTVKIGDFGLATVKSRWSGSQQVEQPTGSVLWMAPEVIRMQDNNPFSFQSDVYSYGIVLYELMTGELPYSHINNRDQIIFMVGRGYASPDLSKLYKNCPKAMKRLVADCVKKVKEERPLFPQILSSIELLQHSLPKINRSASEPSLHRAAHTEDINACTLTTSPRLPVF
Sequence of B-Raf (V600E) (SEQ. ID NO: 4) kinase (P15056 416-766 V600E): as the sequence (P15056 416-766) above, with V185E counted along it

| Compound | IC50 [1] | IC50 [2] | IC50 [3] | IC50 [4] |
| --- | --- | --- | --- | --- |
| Cc1ncc(NC(=O)c2ccnc(C(C)(F)F)c2)cc1-c1ccnc(-c2ccnc(NC(=O)C3CC3)c2)c1 [Example 466] | ≤ 100 nM | ≤ 100 nM | 500 to 1000 nM | ≤ 100 nM |
| Cc1ccc(NC(=O)c2ccnc(C(C)C)c2)cc1-c1ccnc(-c2ccnc(NC(=O)C3CC3)c2)c1 [Example 467] | ≤ 100 nM | ≤ 100 nM | 100 to 500 nM | ≤ 100 nM |
| Cc1ncc(NC(=O)c2ccnc(C(C)C)c2)cc1-c1ccnc(-c2ccnc(NC(=O)C3CC3)c2)c1 [Example 468] | ≤ 100 nM | ≤ 100 nM | 100 to 500 nM | ≤ 100 nM |
| CNC(=O)c1cc(-c2cc(-c3cc(NC(=O)c4ccnc(C(C)(C)F)c4)ccc3C(F)(F)F)ccn2)ccn1 [Example 471] | 1000 to 10000 nM | 1000 to 10000 nM | 100 to 500 nM | 1000 to 10000 nM |
| CNC(=O)c1cc(-c2cc(-c3cc(F)cc(NC(=O)c4ccnc(C(C)(C)F)c4)c3F)ccn2)ccn1 [Example 475] | 1000 to 10000 nM | 1000 to 10000 nM | 1000 to 10000 nM | 1000 to 10000 nM |
| Cc1ccc(NC(=O)c2ccnc(C(C)(C)F)c2)cc1-c1ccnc(-c2ccnc(C(N)=O)c2)c1 [Example 476] | ≤ 100 nM | ≤ 100 nM | 500 to 1000 nM | ≤ 100 nM |
| CNC(=O)c1cc(-c2cc(-c3cc(NC(=O)c4cnnc(C(F)(F)F)c4)ccc3C)ccn2)ccn1 [Example 477] | ≤ 100 nM | 100 to 500 nM | 1000 to 10000 nM | ≤ 100 nM |
| CNC(=O)c1cc(-c2cc(-c3cc(NC(=O)c4ccnc(C(C)(C)F)c4)cc(F)c3F)ccn2)ccn1 [Example 478] | 100 to 500 nM | ≤ 100 nM | 1000 to 10000 nM | 100 to 500 nM |
| CNC(=O)c1cc(-c2cc(-c3cc(NC(=O)c4ccnc(C(C)(C)F)c4)cc(F)c3C)ccn2)ccn1 [Example 480] | 100 to 500 nM | ≤ 100 nM | 1000 to 10000 nM | 100 to 500 nM |
| CNC(=O)c1cc(-c2cc(-c3cc(NC(=O)c4ccnc(C(C)(C)F)c4)c(F)cc3F)ccn2)ccn1 [Example 482] | 100 to 500 nM | ≤ 100 nM | 500 to 1000 nM | ≤ 100 nM |
| Cc1cc(-c2cc(NC(=O)c3ccnc(C(C)(C)F)c3)ccc2C)cc(-c2ccnc(C#N)c2)n1 [Example 483] | 100 to 500 nM | 100 to 500 nM | 1000 to 10000 nM | ≤ 100 nM |
| Cc1cc(-c2cc(NC(=O)c3ccnc(C(C)(C)F)c3)ccc2C)cc(-c2ccnc(C(N)=O)c2)n1 [Example 484] | ≤ 100 nM | ≤ 100 nM | 500 to 1000 nM | ≤ 100 nM |

More lines, now with the values ahead:

| IC50 [1] | IC50 [2] | IC50 [3] | IC50 [4] | Compound |
| --- | --- | --- | --- | --- |
| ≤ 100 nM | ≤ 100 nM | 1000 to 10000 nM | ≤ 100 nM | CNC(=O)c1cc(-c2cc(-c3cc(NC(=O)c4ccnc(C(C)(C)F)c4)ccc3C)c(F)cn2)ccn1 [Example 469] |
| 100 to 500 nM | ≤ 100 nM | 1000 to 10000 nM | ≤ 100 nM | CNC(=O)c1cc(-c2cc(-c3cc(NC(=O)c4ccnc(C(C)(C)F)c4)ccc3C)cc(C)n2)ccn1 [Example 470] |
| 500 to 1000 nM | ≤ 100 nM | 1000 to 10000 nM | 500 to 1000 nM | CNC(=O)c1cc(-c2cc(-c3cc(NC(=O)c4ccnc(C(C)(C)F)c4)ccc3C)c(C)cn2)ccn1 [Example 472] |
| 100 to 500 nM | ≤ 100 nM | 1000 to 10000 nM | ≤ 100 nM | CNC(=O)c1cc(-c2cc(-c3cc(NC(=O)c4ccnc(C(C)(C)F)c4)ccc3C)cnn2)ccn1 [Example 473] |
| ≤ 100 nM | ≤ 100 nM | 500 to 1000 nM | ≤ 100 nM | CNC(=O)c1cc(-c2cc(-c3cc(NC(=O)c4ccnc(C(C)(C)F)c4)ccc3C)ncn2)ccn1 [Example 474] |
| 100 to 500 nM | 100 to 500 nM | 100 to 500 nM | ≤ 100 nM | CNC(=O)c1cc(-c2cc(-c3cc(NC(=O)c4ccnc(C(C)(C)F)c4)ccc3F)ccn2)ccn1 [Example 479] |
| 1000 to 10000 nM | 1000 to 10000 nM | 1000 to 10000 nM | 500 to 1000 nM | CNC(=O)c1cc(-c2cc(-c3cc(NC(=O)c4ccnc(C(C)(C)F)c4)ccn3)ccn2)ccn1 [Example 481] |
